In the assay the test system is HIV. The assay can be described thus: MT4 Assay (anti-HIV activity). The following applies: Human immunodeficiency virus 1, 96 h, read-out: HIV MT4 Assay IC50, HTLV-1 transformed cell line MT-4, cell titer glo, 10 point dose response curve. It counts as cell-based. The gist of the method:
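IC50 values were fitted to 10-point dose-response series (3-4-fold dilutions, range >1000-fold), normalized to no-compound control. CellTiter-Glo read-out was taken after 96 hours in HTLV-1-transformed MT-4 cells. Cytotoxicity was measured in parallel under identical conditions.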
On the technique in general: Cellular ATP, detected with luciferase, serves as a proxy for viable cell number.
As to `COc1cccc(-c2ccc3c(-c4cc(F)c5c(c4C)CCCO5)c([C@H](OC(C)(C)C)C(=O)O)n(C)c(=O)c3c2)n1` (atropisomer, axis not shown; (M)) [Example 208, (2S)(M)-[(1,1-dimethylethyl)oxy]{4-(8-fluoro-5-methyl-3,4-dihydro-2H-chromen-6-yl)-2-methyl-7-[6-(methyloxy)-2-pyridinyl]-1-oxo-1,2-dihydro-3-isoquinolinyl}ethanoic acid], the IC50 (in general, the point on the concentration scale where inhibition reaches its midpoint) stood at 40 nM.
Under `CCNC(=O)NCc1ccc2c(-c3ccc(C)c(C)c3)c(C(OC(C)(C)C)C(=O)O)n(C)c(=O)c2c1` (stereo not drawn) [Example 185, 2-(tert-butoxy)-2-(4-(3,4-dimethylphenyl)-7-((3-ethylureido)methyl)-2-methyl-1-oxo-1,2-dihydroisoquinolin-3-yl)acetic acid] stands 37400 nM.
Take `Cc1c(-c2c(C(OC(C)(C)C)C(=O)O)n(C)c(=O)c3ccccc23)cc(F)c2c1CCCO2` (stereo not drawn) [Example 150, [(1,1-dimethylethyl)oxy][4-(8-fluoro-5-methyl-3,4-dihydro-2H-chromen-6-yl)-2-methyl-1-oxo-1,2-dihydro-3-isoquinolinyl]acetic acid]: the IC50 came to 160 nM.
Under `Cc1ccc(-c2c(C(OC(C)(C)C)C(=O)O)n(C)c(=O)c3cc(C(N)=O)ccc23)cc1C` (stereo not drawn) [Example 178, [7-(aminocarbonyl)-4-(3,4-dimethylphenyl)-2-methyl-1-oxo-1,2-dihydro-3-isoquinolinyl][(1,1-dimethylethyl)oxy]acetic acid] stands 50000 nM; under `Cc1ccc2c(-c3ccc4c(c3)CCCO4)c(C(OC(C)(C)C)C(=O)O)n(C)c(=O)c2c1` (stereo not drawn) [Example 58, 2-(tert-butoxy)-2-[4-(3,4-dihydro-2H-1-benzopyran-6-yl)-2,7-dimethyl-1-oxo-1,2-dihydroisoquinolin-3-yl]acetic acid], 370 nM; under `Cc1c(-c2c([C@H](OC(C)(C)C)C(=O)O)n(C)c(=O)c3cc(N4CCOCC4)ccc23)cc(F)c2c1CCCO2` (atropisomer, axis not shown; (M)) [Example 168, (S)(M)-2-(tert-butoxy)-2-(4-(8-fluoro-5-methylchroman-6-yl)-2-methyl-7-morpholino-1-oxo-1,2-dihydroisoquinolin-3-yl)acetic acid], 260 nM.
As to `Cn1cc(-c2c(C(OC(C)(C)C)C(=O)O)n(C)c(=O)c3ccccc23)cn1` (stereo not drawn) [Example 157, [(1,1-dimethylethyl)oxy][2-methyl-4-(1-methyl-1H-pyrazol-4-yl)-1-oxo-1,2-dihydro-3-isoquinolinyl]acetic acid], the half-inhibitory concentration (IC50) was found to be 41600 nM.
For the compound `COc1cc(-c2c(C(OC(C)(C)C)C(=O)O)n(C)c(=O)c3ccccc23)ccc1C` (stereo not drawn) [Example 52, 2-(tert-butoxy)-2-[4-(3-methoxy-4-methylphenyl)-2-methyl-1-oxo-1,2-dihydroisoquinolin-3-yl]acetic acid], the IC50 amounted to 3120 nM.
Under `CC(=O)N1CCc2ccc(-c3c(C(OC(C)(C)C)C(=O)O)n(C)c(=O)c4ccccc34)cc2C1` (stereo not drawn) [Example 80, 2-[4-(2-acetyl-1,2,3,4-tetrahydroisoquinolin-7-yl)-2-methyl-1-oxo-1,2-dihydroisoquinolin-3-yl]-2-(tert-butoxy)acetic acid] stands 50000 nM.
Under `Cc1c(-c2c([C@H](OC(C)(C)C)C(=O)O)n(C)c(=O)c3ccccc23)ccc2c1CCCO2` [Example 140, (2S)-2-(tert-butoxy)-2-[2-methyl-4-(5-methyl-3,4-dihydro-2H-1-benzopyran-6-yl)-1-oxo-1,2-dihydroisoquinolin-3-yl]acetic acid] stands 110 nM; under `Cc1occc1-c1c(C(OC(C)(C)C)C(=O)O)n(C)c(=O)c2ccccc12` (stereo not drawn) [Example 155, [(1,1-dimethylethyl)oxy][2-methyl-4-(2-methyl-3-furanyl)-1-oxo-1,2-dihydro-3-isoquinolinyl]acetic], 13300 nM; under `Cn1c(C(OC(C)(C)C)C(=O)O)c(-c2ccc3c(c2)OCCC3)c2ccccc2c1=O` (stereo not drawn) [Example 36, 2-(tert-butoxy)-2-[4-(3,4-dihydro-2H-1-benzopyran-7-yl)-2-methyl-1-oxo-1,2-dihydroisoquinolin-3-yl]acetic acid], 15000 nM.
In the case of `Cc1c(-c2c(C(OC(C)(C)C)C(=O)O)n(C)c(=O)c3cc(OCc4ccccc4F)ccc23)ccc2c1CCCO2` (stereo not drawn) [Example 103, 2-(tert-butoxy)-2-{7-[(2-fluorophenyl)methoxy]-2-methyl-4-(5-methyl-3,4-dihydro-2H-1-benzopyran-6-yl)-1-oxo-1,2-dihydroisoquinolin-3-yl}acetic acid], the IC50 amounted to 50 nM.
Under `Cc1c(-c2c([C@H](OC(C)(C)C)C(=O)O)n(C)c(=O)c3cc(OCc4ccc(F)cc4F)ccc23)cc(F)c2c1CCCO2` [Example 107, (2S)-2-(tert-butoxy)-2-{7-[(2,4-difluorophenyl)methoxy]-4-(8-fluoro-5-methyl-3,4-dihydro-2H-1-benzopyran-6-yl)-2-methyl-1-oxo-1,2-dihydroisoquinolin-3-yl}acetic acid] stands 20 nM; under `Cc1ccc2c(-c3cc(F)c4c(c3C)CCCO4)c([C@H](OC(C)(C)C)C(=O)O)n(C)c(=O)c2c1` [Example 131, (2S)-2-(tert-butoxy)-2-[4-(8-fluoro-5-methyl-3,4-dihydro-2H-1-benzopyran-6-yl)-2,7-dimethyl-1-oxo-1,2-dihydroisoquinolin-3-yl]acetic acid], 20 nM; under `Cc1c(-c2c([C@H](OC(C)(C)C)C(=O)O)n(C)c(=O)c3cc(OCc4ccc(F)cc4)ccc23)ccc2c1CCCO2` [Example 147, (2S)-2-(tert-butoxy)-2-{7-[(4-fluorophenyl)methoxy]-2-methyl-4-(5-methyl-3,4-dihydro-2H-1-benzopyran-6-yl)-1-oxo-1,2-dihydroisoquinolin-3-yl}acetic acid], 20 nM.
As to `COc1ccc2c(-c3ccc4c(c3C)CCCO4)c(C(OC(C)(C)C)C(=O)O)n(C)c(=O)c2c1F` (stereo not drawn) [Example 126, 2-(tert-butoxy)-2-[8-fluoro-7-methoxy-2-methyl-4-(5-methyl-3,4-dihydro-2H-1-benzopyran-6-yl)-1-oxo-1,2-dihydroisoquinolin-3-yl]acetic acid], the IC50 stood at 360 nM.
With `Cc1c(-c2c(C(OC(C)(C)C)C(=O)O)n(C)c(=O)c3cc(OCc4cccc(F)c4F)ccc23)ccc2c1CCCO2` (stereo not drawn) [Example 96, 2-(tert-butoxy)-2-{7-[(2,3-difluorophenyl)methoxy]-2-methyl-4-(5-methyl-3,4-dihydro-2H-1-benzopyran-6-yl)-1-oxo-1,2-dihydroisoquinolin-3-yl}acetic acid] the figure was 70 nM; with `Cc1c(-c2c([C@H](OC(C)(C)C)C(=O)O)n(C)c(=O)c3cc(CC(C)C)ccc23)cc(F)c2c1CCCO2` (atropisomer, axis not shown; (M)) [Example 174, (2S)(M)-[(1,1-dimethylethyl)oxy][4-(8-fluoro-5-methyl-3,4-dihydro-2H-chromen-6-yl)-2-methyl-7-(2-methylpropyl)-1-oxo-1,2-dihydro-3-isoquinolinyl]ethanoic acid], 50 nM; with `Cc1ccc(-c2c(C(OC(C)(C)C)C(=O)O)n(C)c(=O)c3cc(CNC(=O)C(=O)O)ccc23)cc1C` (stereo not drawn) [Example 186, 2-(tert-butoxy)-2-(7-((carboxyformamido)methyl)-4-(3,4-dimethylphenyl)-2-methyl-1-oxo-1,2-dihydroisoquinolin-3-yl)acetic acid], 50000 nM.
With `COc1ccc(-c2c(C(OC(C)(C)C)C(=O)O)n(C)c(=O)c3ccccc23)c(C)c1` (stereo not drawn) [Example 31, 2-(tert-butoxy)-2-[4-(4-methoxy-2-methylphenyl)-2-methyl-1-oxo-1,2-dihydroisoquinolin-3-yl]acetic acid] the figure was 1720 nM; with `Cc1cccc(-c2c(C(OC(C)(C)C)C(=O)O)n(C)c(=O)c3ccccc23)c1` (stereo not drawn) [Example 18, 2-(tert-butoxy)-2-[2-methyl-4-(3-methylphenyl)-1-oxo-1,2-dihydroisoquinolin-3-yl]acetic acid], 3580 nM; with `Cn1c(C(OC(C)(C)C)C(=O)O)c(-c2ccc3c(c2Cl)NCCO3)c2ccccc2c1=O` (stereo not drawn) [Example 86, 2-(tert-butoxy)-2-[4-(5-chloro-3,4-dihydro-2H-1,4-benzoxazin-6-yl)-2-methyl-1-oxo-1,2-dihydroisoquinolin-3-yl]acetic acid], 4380 nM.
Consider `Cc1c(-c2c([C@H](OC(C)(C)C)C(=O)O)n(C)c(=O)c3cc(-c4cccc(F)c4)ccc23)cc(F)c2c1CCCO2` (atropisomer, axis not shown; (M)) [Example 210, (S)(M)-2-(tert-butoxy)-2-(4-(8-fluoro-5-methylchroman-6-yl)-7-(3-fluorophenyl)-2-methyl-1-oxo-1,2-dihydroisoquinolin-3-yl)acetic acid], for which the IC50 turned out to be 10 nM.
Regarding `Cc1c(-c2c(C(OC(C)(C)C)C(=O)O)n(C)c(=O)c3cc(OCc4cccc(F)c4)ccc23)ccc2c1CCCO2` (stereo not drawn) [Example 104, 2-(tert-butoxy)-2-{7-[(3-fluorophenyl)methoxy]-2-methyl-4-(5-methyl-3,4-dihydro-2H-1-benzopyran-6-yl)-1-oxo-1,2-dihydroisoquinolin-3-yl}acetic acid], the IC50 came out at 60 nM.
Under `Cc1c(-c2c(C(OC(C)(C)C)C(=O)O)n(C)c(=O)c3cc(OCc4ccc(F)c(F)c4)ccc23)ccc2c1CCCO2` (stereo not drawn) [Example 138, 2-(tert-butoxy)-2-{7-[(3,4-difluorophenyl)methoxy]-2-methyl-4-(5-methyl-3,4-dihydro-2H-1-benzopyran-6-yl)-1-oxo-1,2-dihydroisoquinolin-3-yl}acetic acid] stands 70 nM.
Consider `Cc1ccc2c(-c3ccc4c(c3C)CCCO4)c(C(OC(C)(C)C)C(=O)O)n(C)c(=O)c2c1` (stereo not drawn) [Example 67, 2-(tert-butoxy)-2-[2,7-dimethyl-4-(5-methyl-3,4-dihydro-2H-1-benzopyran-6-yl)-1-oxo-1,2-dihydroisoquinolin-3-yl]acetic acid], for which the IC50 amounted to 120 nM.

For the origin of these results see patent publication US9029391B2 (priority 2011, dated 2015).
